Laboratory results published in publication PMC4116524, “A virtual screen identified C96 as a novel inhibitor of phosphatidylinositol 3-kinase that displays potent preclinical activity against multiple myeloma in vitro and in vivo” (Oncotarget, 2014).

Test system: cleavage of PARP and caspase-3 in LP1, OPM2 and JJN3 cells
Assay: Apoptotic signaling, immunoblotting of PARP and caspase-3
Assay type: cell-based
Conditions: 0-20 μM or 10 μM for 3-12 hrs, time- and concentration-dependent
Description: Because PI3K/AKT signaling is critical in modulating MM cell proliferation and survival, while interference with this pathway will lead to cell death and regression of MM tumors, we next asked whether C96 could induce MM cell apoptosis and inhibited MM cell proliferation. […] Next, we measured the induction of apoptosis by C96 in MM cell lines. Apoptotic cells are featured with inside-out expression of phosphatidylserine which is specifically identified by Annexin V, a cellular protein in the annexin group. Therefore, to measure the apoptotic level, C96-treated cells were stained with Annexin V-FITC and propidium iodide followed by flow cytometry analysis. […] For example, less apoptotic cells were induced by C96 in KMS11 cells in the Annexin V staining assay (Figure 5), the cleavage level of PARP in this cell line was also lower than that seen in other cell lines, such as OPM2 (Figure 6A). We next examined the apoptotic signaling pathway in the treatment with C96 with increasing exposure periods or concentrations. […]
Cells were treated with or without C96 for 24 hrs before being applied to lysate preparation in a lysis buffer (50 mM Tris-HCI, pH 7.4, 1% NP-40, 0.5% Na-deoxycholate, and 0.1% SDS, 150 mM NaCl, 2 mM EDTA, 2 mM Na3VO4, and 5 mM NaF). […] All immunoblotting signals were further analyzed with Quality One Quality One software (Bio-Rad, Berkeley, CA, USA).

In the case of `O=C1NC(=O)C(=CC=Cc2cccs2)C(=O)N1` [C96, 5-(3-(2-thienyl)-2-propen-1-ylidene)-2,4,6(1H,3H,5H)-pyrimidinetrione], the “cleavage of PARP and caspase-3” value is reported as “induced cleavage of PARP and caspase-3”.
